The results in this text go back to article PMC11758266, “Lipid-Modulated, Graduated Inhibition of N-Glycosylation Pathway Priming Suggests Wide Tolerance of ER Proteostasis to Stress” (ACS Central Science, 2024).

The target of assay [1] is T1, DPAGT1 (Homo sapiens, UniProt Q9H3H5).
T1 construct: full-length DPAGT1 bearing an additional tobacco etch virus (TEV) protease-cleavable N-terminal His6 tag; His6 with TEV protease cleavage site ([…]/S leader) (N, cleaved yes); made in house; host or cells: Spodoptera frugiperda Sf9 insect cells (baculovirus, pFB-LIC-Bse vector)
T1 sequence (Q9H3H5 with tags, fused parts or gaps): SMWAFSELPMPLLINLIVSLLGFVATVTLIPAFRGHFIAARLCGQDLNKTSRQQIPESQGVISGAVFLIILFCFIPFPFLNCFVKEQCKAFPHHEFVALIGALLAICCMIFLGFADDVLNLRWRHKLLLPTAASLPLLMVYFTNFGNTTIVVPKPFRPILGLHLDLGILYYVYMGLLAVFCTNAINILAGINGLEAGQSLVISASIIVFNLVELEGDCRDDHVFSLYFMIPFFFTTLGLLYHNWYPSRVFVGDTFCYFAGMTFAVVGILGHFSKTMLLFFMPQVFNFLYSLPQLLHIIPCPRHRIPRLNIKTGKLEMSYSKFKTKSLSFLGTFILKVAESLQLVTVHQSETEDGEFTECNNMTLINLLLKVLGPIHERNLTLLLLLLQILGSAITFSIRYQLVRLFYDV
Briefly: DPAGT1 radiometric in vitro activity assay (end point, phosphorimaging of radio-TLC). It is filed as biochemical. As to conditions: for % Activity of DPAGT1 in the presence of a tunicamycin analogue compared to a negative control (GFB): Table S1, analogue 1 µM, DPAGT1 1 µM, dolichyl monophosphate 50 µM, UDP-GlcNAc(1-14C) 50 µM, 37 °C, 21 min, three biological replicates; for DPAGT1 inhibition (in words): inhibitor 1 µM, enzyme:inhibitor 1:1, substrates 50 µM. The source says:
Figure 2 Design, synthesis and in vitro inhibitory activity of lipid-altered tunicamycins. (A) Structure of DPAGT1 in complex with tunicamycin[21] showing key interactions primarily along TMH5 that in concert with a Trp122 “lid” create the lipid-engagement site (blue). This engagement contrasts with a small, gated pocket below bounded primarily by Leu293 in which only smaller moieties (here an acetamide) are accommodated (red). (B) Guided by this structure, as an apparent snapshot of a Michaelis complex-like mode of binding, modulation at two acyl sites in the core scaffold was explored. […] Semisynthesis allowed generation of graduated lipid tunicamycin analogues through regiochemical differentiation in carbamoylation to generate two key divergent intermediates: Tun-0E,0G and Tun-0E,2G. Subsequent differential acylations allow for generation of both symmetric and asymmetric Tun-XE,YG analogues. Reagents and conditions: (a) Ac2O, pyridine; (b) Boc2O, DMAP, THF; (c) NaOMe, MeOH; (d) 4 M HCl in dioxane, MeOH; (e) HATU, DIPEA, octanoic acid, DMF; (f) HATU, DIPEA, carboxylic acid; (g) HATU, DIPEA, 2 × carboxylic acid. (C) Residual % in vitro activity of DPAGT1 following incubation with analogues [DPAGT1 ([…]), MgCl2 (5 mM), Tun analogue ([…]), dolichol phosphate ([…]), and UDP-GlcNAc(1-^14C) ([…]) in 1% OGNG/CHS/cardiolipin] was assessed through end point assay at 37 °C via phosphorimaging. These were determined on the basis of three biological replicates, each using three technical replicates. Error bars shown are standard deviations.
The intended targeting and graduated modulation of DPAGT1’s PNPT activity was assessed in vitro using a highly pure recapitulated source. Briefly, full-length DPAGT1 bearing an additional tobacco etch virus (TEV) protease-cleavable N-terminal His6 tag was expressed using a baculovirus (DH10Bac)/insect cell (Spodoptera frugiperda Sf9) system using a pFB-LIC-Bse expression vector. DPAGT1 is an integral transmembrane enzyme, and thus, after harvesting and lysis, protein was extracted from the expression host membrane fraction using octyl glucose neopentyl glycol (OGNG) (1% w/v) and cholesterylhemisuccinate (CHS) (0.1% w/v) before isolation and purification by immobilized metal affinity chromatography (IMAC) using a Co^2+-charged (“TALON”) resin and elution with an imidazole gradient. To ensure that there were no confounding effects of the His6 tag, this was then cleaved with TEV protease followed by reverse IMAC and size exclusion chromatography in sequence.
Radiometric bisubstrate analyses allowed excellent sensitivity under the conditions necessary for proper recapitulation of the activity. Purified DPAGT1 (1 μM) was incubated with both substrates, dolichol monophosphate and radiolabeled UDP-N-acetyl-D-[1-^14C]glucosamine, at 50 μM, and the activity was determined directly by end point phosphor detection of product dolichol-PP-N-acetyl-D-[1-^14C]glucosamine formation.
MgCl2, 10 mM imidazole (pH 8.0), 200 mM NaCl , 2 mM TCEP (added fresh), 5% Glycerol, 0.18% OGNG, 0.01 8% CHS, 0.0036% cardiolipin) and the protein was eluted with WB supplemented with 250 mM imidazole (pH 8.0). The eluted protein was desalted using PD-10 columns (GE Healthcare) pre-equilibrated with gel filtration buffer (GFB: 20 mM HEPES (pH […]
cardiolipin). Desalted protein was subsequently treated with 10:1 TEV protease (w:w, protein:enzyme) overnight at 4 ° C. The TEV protease treated protein was separated from the 6-His-tagged enzymes and uncleaved DPAGT1 by incubation for 1 h with Talon resin (prepared as described above) at 4 °C for 1 h. The resin was collected in a column, the flowthrough collected and the protein sample was centrifuged at 21,500 rpm in a Beckman TA25.5 rotor for 10 min at 4 ° C. The supernatant was then concentrated to 0.5 mL using a 30 kDa cutoff PES concentrator (Corning), with mixing every 5 mins during concentration. The […]

In assay [2] the test system is His-tagged IgG-Fc domain. In words: In cell glycoprotein inhibition assay (IgG-Fc expression, SDS-PAGE and Western blot). It is filed as cell-based, human. As to conditions: HEK293T cells, 3 days, analogue 10 µM down to 0.5 nM (Tun-8E,2G 300 µM down to 15 nM), Figure S13.
Assay [3] relates to ATF4. In words: ATF4 high-content imaging assay in primary human dermal fibroblasts. It is filed as cell-based. To be noted: 6 h, Figures S8–S12. The procedure:
A targeted panel of tunicamycin analogues was tested in the ATF4 High Content Imaging assay to assess their ER stress generating ability in a primary cell line. Normal adult human dermal fibroblasts (NHDF-Ad, Lonza) were plated in a 96-well Phenoplate (PerkinElmer) at a seeding density of 10,000 cells per well in fibroblast growth medium (containing fibroblast basal medium, 10% FBS, 0.1% insulin, 0.1% hFGF-B, 0.1% Gentamicin/Amphotericin) and incubated at 37°C, 5% CO2. Treatment with pre-diluted compounds was performed after 24 hrs with final concentrations ranging from 10 µM – 5 nM (final DMSO concentration was 0.3%). Low control (0.3% DMSO final conc.) and high control (0.3 µM tunicamycin final conc.) wells were again included for assay normalization. Treated cells were incubated for 6 hrs at 37°C, 5% CO2 before fixing (4% PFA in PBS, 20 min at room temperature followed by washing (3x) with PBS). Direct ATF4 immunofluorescence staining was then performed, whereby cells were treated with a Coralite Plus 488-conjugated ATF4 Polyclonal antibody (CL488-10835, Proteintech) in a 1:100 dilution of Perm-block buffer (10% FBS, 0.3% TritonX-100 in PBS) for 2 hrs. Nuclei staining was then performed with DRAQ5 dye (ab108410, Abcam) at 1:1000 in PBS. Plates were imaged on a Leica SP8 confocal microscope equipped with 488 nm and 633 nm excitation and images were analysed using script-based algorithms as described for HEK cells above. […]

Assay [4] concerns the target T2, DPAGT1 (Homo sapiens, UniProt Q9H3H5).
T2 sequence (Q9H3H5 1-408): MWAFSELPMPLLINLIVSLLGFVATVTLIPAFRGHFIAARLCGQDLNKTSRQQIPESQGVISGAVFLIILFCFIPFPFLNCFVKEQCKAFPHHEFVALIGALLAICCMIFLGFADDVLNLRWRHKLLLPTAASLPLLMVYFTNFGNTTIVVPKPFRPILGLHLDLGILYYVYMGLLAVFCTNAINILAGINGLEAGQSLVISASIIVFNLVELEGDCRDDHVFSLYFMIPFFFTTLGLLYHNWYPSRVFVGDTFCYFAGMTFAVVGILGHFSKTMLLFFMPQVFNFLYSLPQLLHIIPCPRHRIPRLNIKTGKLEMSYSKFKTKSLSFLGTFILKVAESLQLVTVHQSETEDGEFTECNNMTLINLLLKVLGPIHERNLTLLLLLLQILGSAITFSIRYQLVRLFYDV
In words: Heat-induced denaturation assay of DPAGT1 with bound ligand. As to conditions: heat-induced denaturation; DPAGT1 alone 51.7 ± 0.2 °C. It is filed as binding. The source says:
The structure of DPAGT1 in complex with the archetypal scaffold natural product tunicamycin[21] […] Trp122 moves so as to use its indole moiety to hydrophobically provide a binding “cap” or “lid” over the proximal portion of the 10′-N lipid chain.

`CCCCCCCC(=O)N[C@H]1[C@H](O[C@H]2O[C@H](CO)[C@@H](O)[C@H](O)[C@H]2NC(=O)CCCCCCC)O[C@H](C[C@@H](O)[C@H]2O[C@@H](n3ccc(=O)[nH]c3=O)[C@H](O)[C@@H]2O)[C@H](O)[C@@H]1O` [Tun-8E,8G]: in assay [1], the “% Activity of DPAGT1 in the presence of a tunicamycin analogue compared to a negative control (GFB)” value was found to be 90.0% and the “DPAGT1 inhibition (in words)” value was “little to no significant inhibition”. The “glycosylation state of expressed IgG-Fc (in words)” value in assay [2] is “expression of intact glycosylated protein”. Besides, the “increase in ATF4 (in words)” value in assay [3] was “only Tun itself leads to an increase in ATF4”.

For the compound `CCCCCCCCC(=O)N[C@H]1[C@H](O[C@H]2O[C@H](CO)[C@@H](O)[C@H](O)[C@H]2NC(=O)CCC)O[C@H](C[C@@H](O)[C@H]2O[C@@H](n3ccc(=O)[nH]c3=O)[C@H](O)[C@@H]2O)[C@H](O)[C@@H]1O` [Tun-9E,4G], in assay [1], the “% Activity of DPAGT1 in the presence of a tunicamycin analogue compared to a negative control (GFB)” value was 83.6% and the “DPAGT1 inhibition (in words)” value was “did not cause a significant reduction in DPAGT1 activity”.

In the case of `CCCCCCCCC(=O)N[C@H]1[C@@H](O[C@@H]2O[C@H](C[C@@H](O)[C@H]3O[C@@H](n4ccc(=O)[nH]c4=O)[C@H](O)[C@@H]3O)[C@H](O)[C@H](O)[C@H]2NC(=O)CC(C)C)O[C@H](CO)[C@@H](O)[C@@H]1O` [Tun-i5E,9G], in assay [1], the “% Activity of DPAGT1 in the presence of a tunicamycin analogue compared to a negative control (GFB)” value is 90.7% and the “DPAGT1 inhibition (in words)” value was “little to no significant inhibition”.

For the compound dolichol-1-phosphate [Dol-1-P], the “Tm,1/2 of DPAGT1 bound to ligand” value in assay [4] stood at 58.5 ± 0.3 °C.
